Patent publication EP0765662A1, “HIV GROWTH INHIBITORY COMPOSITION” (Kochi, Mutsuyuki, priority 1994, dated 1995)

System: HIVBRU
Experiment: HIV-p24 antigen released from HIV-infected A3.01 cells stimulated with TNF-α
Format: cell-based
Conditions: AZT 2 µg/ml in place of SBA, HIV-infected A3.01 cells
Source text: In view of all these test results, it appears that the inhibitory activity of SBA against the replication of HIV-1 is not attributable to that SBA directly acts on HIV so as to make lose the infectivity (infectious power) of HIV. (c) Test of examining the inhibitory activity of SBA against such replication of the viral particles of HIV which is induced when a tumor necrosis factor (TNF-α) is introduced into the HIV-infected A3.01 cells AIDS virus, HIVBRU (its reverse transcriptase activity, 0.03 cpm/cell) and 6 x 10^6 cells of the A3.01 cell (HAT-susceptible CEM cell strain) were mixed and reacted together in a culture medium at 37°C for 1 hour, and thereafter the mixed cells were washed with PBS to remove the excess of the particles of HIV virus therefrom. The A3.01 cells (5 x 10^5 cells) which had been so infected with HIV were then cultivated in various culture media containing TNF-α and SBA at different concentrations of them. The amount of the HIV-p24 antigen (an HIV-structural protein of HIV) which was released in the culture supernatant from the cultivated cells under test was periodically measured during the period of between 0 day to 5th day of the cultivation. The culture medium used for the above-mentioned cultivation of the A3.01 cells was an RPM1-1640 medium comprising 10% of heat-treated embryonic bovine serum, and minor amounts of penicillin, streptomycin, glutamine and mercaptoethanol. The amount of the HIV-p24 antigen produced was measured with lapse of time, and the relationship of the amount of the HIV-p24 antigen to the concentration of SBA is summarily tabulated in Table 4 below.
In the tests above, the replication of the viral particles of HIV was examined in terms of the amount of the p24 antigen protein produced and appearing in the culture supernatant from the cultivated cells. Thus, the amount of the p24 antigen produced was measured periodically over 6 days after the A3.01 cells were infested with HIV. It was then observed that in the absence of SBA, the replication of the viral particles of HIV was induced in the A3.01 cells by stimulation with 10 units/ml of TNF-α added. […] Thus, the effective amount of SBA has the activity to inhibit the replication of the viral particles of HIV within the cells to an extent as same as AZT, and from this it is expected that SBA is useful similarly to AZT for the therapeutic treatments of AIDS. (d) Tests for evaluating an inhibitory activity of SBA to the formation of giant cells from HIV-infected Molt-4 cells In a similar manner to that in the above Test (c), Molt-4 cells (a CD4-positive human T-cell strain) were infected with AIDS virus, HIVBRU. Thereafter, The HIV-infected Molt-4 cells were mixed with such Molt-4 cells which had no HIV-infection. And the mixture of these cells were cultivated at a high density of the mixed cells in the above-mentioned improved RPM1-1640 medium containing SBA at its different concentrations. Whereupon, there was examined the presence of cell-fused cell(s) (namely, the giant cells) which were formed by fusion of the HIV-infected cells with each other or by fusion of the HIV-infected cells with the HIV-non-infected cells. The formation and appearance of the giant cells was confirmed by microscopic observation. The size of such giant cells is clearly different from the size of the other usual cells. […] Namely, it is shown that SBA has an anti-HIV activity. […] In the initial stage of the transcription of HIV-1 gene, said NFkB, i.e. the transcription regulating factor of the host cells, plays an important role. […] NFkB is known to be a complex protein which is composed by the association of a molecule of protein having a molecular weight of about 50,000 (p50) with a molecule of protein having a molecular weight of about 65,000 (p65). […]

Measured: Amount of the HIV p24 antigen

Cc1cn([C@H]2C[C@H](N=[N+]=[N-])[C@@H](CO)O2)c(=O)[nH]c1=O [AZT, azidothymidine, reference compound]
0 pg/mL: 0th day | 1st day | 2nd day | 3rd day | 4th day | 5th day
